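Assay format: 96-well plates, 48-hour exposure. TGI: concentration producing complete growth inhibition.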 Where only a bound is given, the exact number is not on record here.

Among the test systems are MDA-MB-231 breast; SNB-19 CNS; HL-60(TB) leukemia; SW-620 colon; ACHN renal; HOP-62 NSCLC; NCI-H522 lung; T-47D breast; RPMI-8226 leukemia; SK-MEL-28 melanoma; NCI-H460 lung; CAKI-1 renal; MOLT-4 leukemia.
Holding throughout (test): NCI tumour cell line growth inhibition, 48 h

Regarding `COc1ccc(OC)c(C2CCc3cnc4nc(N)nc(N)c4c3C2)c1` (stereo unspecified), the TGI with MDA-MB-231 breast, in the assay on SNB-19 CNS, with HL-60(TB) leukemia, with SW-620 colon, in the assay with ACHN renal and in the assay on HOP-62 NSCLC was above 100 µM each time. The TGI with NCI-H522 lung, in the assay on T-47D breast, in the assay with RPMI-8226 leukemia, in the assay on SK-MEL-28 melanoma, with NCI-H460 lung and in the assay on CAKI-1 renal was above 100 µM throughout. In the assay with MOLT-4 leukemia, this compound displayed a TGI above 100 µM.

Consider `Cc1ccc(S(=O)(=O)C2=c3ncccc3=C3C(=O)c4ccccc4C(=O)C32)cc1` (stereo unspecified), for which the TGI is above 100 µM in the assay on MDA-MB-231 breast; 79.9 µM with SNB-19 CNS; above 100 µM in the assay on HL-60(TB) leukemia; above 100 µM in the assay on SW-620 colon; above 95.8 µM with ACHN renal; 9.14 µM with HOP-62 NSCLC. Also, the TGI with NCI-H522 lung is 85.3 µM; with T-47D breast, above 100 µM; in the assay with RPMI-8226 leukemia, above 100 µM; with SK-MEL-28 melanoma it was above 100 µM; with NCI-H460 lung, above 56.9 µM; in the assay with CAKI-1 renal, above 100 µM. This compound yielded a TGI in the assay with MOLT-4 leukemia above 100 µM.

As for `Cc1cc(S(=O)(=O)Nc2nc(N)n(C)n2)c(S)cc1Cl`, the TGI in the assay with MDA-MB-231 breast, with SNB-19 CNS, in the assay with HL-60(TB) leukemia, in the assay with SW-620 colon, with ACHN renal and with HOP-62 NSCLC was above 10 µM each time. For the same compound, the TGI with NCI-H522 lung, in the assay with T-47D breast, with RPMI-8226 leukemia, in the assay with SK-MEL-28 melanoma, in the assay on NCI-H460 lung and with CAKI-1 renal was above 10 µM in each case. This compound gave a TGI in the assay with MOLT-4 leukemia above 10 µM.

As for `C=CCC1(O)c2cccc(O)c2C(=O)c2c(O)cccc21`, the TGI in the assay on MDA-MB-231 breast is above 100 µM; in the assay on HL-60(TB) leukemia it was 47.5 µM; in the assay on SW-620 colon it was above 100 µM; in the assay on ACHN renal it was above 100 µM; in the assay on HOP-62 NSCLC, above 100 µM; with NCI-H522 lung, 75.8 µM. The TGI with T-47D breast is 78.3 µM; with RPMI-8226 leukemia it was above 100 µM; in the assay with SK-MEL-28 melanoma, above 100 µM; in the assay on NCI-H460 lung, above 100 µM; in the assay on CAKI-1 renal it was above 100 µM; in the assay with MOLT-4 leukemia it was above 100 µM.

With `CC(C)(C)OC(=O)C(C1NC(C(=O)O)C(C)(C)S1)N1C(=O)c2ccccc2C1=O` (stereo unspecified), the TGI in the assay on MDA-MB-231 breast, in the assay with SNB-19 CNS, in the assay with HL-60(TB) leukemia, in the assay with SW-620 colon, in the assay with ACHN renal and in the assay with HOP-62 NSCLC was above 100 µM each time. Besides, the TGI with NCI-H522 lung, in the assay with T-47D breast, in the assay with RPMI-8226 leukemia, in the assay with SK-MEL-28 melanoma, in the assay with NCI-H460 lung and in the assay with CAKI-1 renal was above 100 µM in each case. Besides, in the assay on MOLT-4 leukemia, the TGI is above 100 µM.

In the case of `Cn1cc(-c2ccc(CCOC3CCCCO3)cc2)c2c(C#N)cccc21` (stereo unspecified), the TGI with MDA-MB-231 breast, in the assay with SNB-19 CNS, in the assay with HL-60(TB) leukemia, with SW-620 colon, with HOP-62 NSCLC and in the assay with NCI-H522 lung was above 100 µM in each case. The TGI was above 100 µM in the assay on T-47D breast; above 100 µM with RPMI-8226 leukemia; 42.4 µM in the assay with SK-MEL-28 melanoma; above 100 µM with NCI-H460 lung; above 100 µM in the assay on CAKI-1 renal; above 100 µM in the assay with MOLT-4 leukemia.

Regarding `COC(=O)C(Cc1ccccc1)NS(=O)(=O)c1ccc(-c2c3nc(c(-c4ccc(S(=O)(=O)NC(Cc5ccccc5)C(=O)OC)cc4)c4ccc([nH]4)c(-c4ccc(S(=O)(=O)NC(Cc5ccccc5)C(=O)OC)cc4)c4nc(c(-c5ccc(S(=O)(=O)NC(Cc6ccccc6)C(=O)OC)cc5)c5ccc2[nH]5)C=C4)C=C3)cc1` (stereo unspecified), the TGI in the assay with MDA-MB-231 breast, in the assay with SNB-19 CNS, with HL-60(TB) leukemia, in the assay with SW-620 colon, with ACHN renal and with HOP-62 NSCLC was above 100 µM in each case. Also, the TGI in the assay with NCI-H522 lung, with T-47D breast, in the assay on RPMI-8226 leukemia, in the assay on SK-MEL-28 melanoma, with NCI-H460 lung and in the assay on CAKI-1 renal was above 100 µM each time. The compound also gave a TGI in the assay on MOLT-4 leukemia above 100 µM.

With `CC(C)C1OCC(CO)CO1` (stereo unspecified), the TGI in the assay with MDA-MB-231 breast, with SNB-19 CNS, in the assay on HL-60(TB) leukemia, with SW-620 colon, in the assay on ACHN renal and in the assay with HOP-62 NSCLC was above 100 µM each time. The TGI in the assay with NCI-H522 lung, with T-47D breast, in the assay with RPMI-8226 leukemia, in the assay on SK-MEL-28 melanoma, in the assay on NCI-H460 lung and in the assay with CAKI-1 renal was above 100 µM in each case. In the assay with MOLT-4 leukemia, this compound had a TGI above 100 µM.

On to `COC(=O)C1=NN2c3ccccc3CN([C@@H](C)c3ccccc3)C(=O)[C@@H]2C1`, for which the TGI is above 100 µM in the assay with MDA-MB-231 breast; above 100 µM in the assay with SNB-19 CNS; 48.6 µM in the assay on HL-60(TB) leukemia; above 100 µM in the assay on SW-620 colon; above 100 µM in the assay with ACHN renal; above 100 µM in the assay on HOP-62 NSCLC. In addition, the TGI in the assay with NCI-H522 lung was 53.1 µM; with T-47D breast it was 40.1 µM; in the assay with RPMI-8226 leukemia, 62.7 µM; in the assay with SK-MEL-28 melanoma, above 100 µM; with NCI-H460 lung, above 100 µM; with CAKI-1 renal, 77.7 µM. This compound displayed a TGI in the assay on MOLT-4 leukemia of 46.5 µM.

With `COC(=O)c1ccccc1CC1Cc2cc3c(cc2C1)CCC3`, the TGI with MDA-MB-231 breast is above 100 µM; with SNB-19 CNS, above 100 µM; with HL-60(TB) leukemia, 23.4 µM; in the assay on SW-620 colon, above 100 µM; with ACHN renal it was above 100 µM; in the assay with HOP-62 NSCLC, above 100 µM. Also, the TGI with NCI-H522 lung is 91.6 µM; with T-47D breast it was above 100 µM; in the assay with RPMI-8226 leukemia, 40.1 µM; in the assay with SK-MEL-28 melanoma, above 100 µM; in the assay on NCI-H460 lung, above 100 µM; in the assay on CAKI-1 renal, above 100 µM. Besides, the TGI with MOLT-4 leukemia worked out at 38.8 µM.

With `C=C1C(=O)C=C2C=C3C(=O)C(C)(C)C[C@]3(O)C12C` (stereo partly specified), the TGI in the assay with MDA-MB-231 breast came out at 7.59 µM; with SNB-19 CNS, 44.5 µM; in the assay on HL-60(TB) leukemia it was 2.54 µM; in the assay on SW-620 colon it was 3.23 µM; in the assay with ACHN renal it was 4.53 µM; in the assay with HOP-62 NSCLC, 53.3 µM. The TGI came to 3.38 µM in the assay on NCI-H522 lung; 5.98 µM with T-47D breast; 3.2 µM in the assay with RPMI-8226 leukemia; 6.76 µM in the assay on SK-MEL-28 melanoma; 38.2 µM in the assay with NCI-H460 lung; 3.99 µM in the assay on CAKI-1 renal. In the assay with MOLT-4 leukemia, this compound returned a TGI of 2.28 µM.

Values taken from PubChem BioAssay (NCI).
